Key:
Type in all cases: functional, cell-based
P388 = test: Cytotoxicity against mouse P388 cells
SK-MEL-28 = test: Cytotoxicity against human SK-MEL-28 cells
HT-29 = test: Cytotoxicity against human HT-29 cells
A549 = test: Cytotoxicity against human A549 cells

## CC[C@H](C)[C@@H](C(=O)N[C@H](C(=O)N(C)[C@@H](C(C)C)[C@@H](CC(=O)N1CCC[C@H]1[C@H](OC)[C@@H](C)C(=O)O[C@H](CO)Cc1ccccc1)OC)C(C)C)N(C)C [MALEVAMIDE D]
P388
  IC50: 0.3 nM
SK-MEL-28
  IC50: 0.7 nM
HT-29
  IC50: 0.3 nM
A549
  IC50: 0.3 nM

Reference: ChEMBL document CHEMBL1148115, “Malevamide D: isolation and structure determination of an isodolastatin H analogue from the marine cyanobacterium Symploca hydnoides” (J Nat Prod, 2002)
